# From patent US20260000781A1, “FC CONJUGATES INCLUDING AN INHIBITOR OF CD73 AND USES THEREOF” (Cidara Therapeutics, Inc., priority 2022, published 2026)
# Test system: colon tumor cell line CT26
# Assay: Syngeneic mouse tumor efficacy model with colon tumor cell line CT26
# Format: in vivo
# Settings: CT26, Day 10, 210 mg/kg/wk (30 mg/kg IP daily)
# Protocol: Tumor efficacy models were conducted in female BALB/c mice (Charles River; 18-22 g) injected with the colon tumor cell line CT26 (ATCC; CRL-2638). Briefly, CT26 cells freshly prepared and resuspended in PBS were injected SC into the shaved right flank of mice. Tumors were allowed to grow until they became measurable (˜50 mm^3) (typically after 7-10 days of growth). Mice were then randomized so each starting group had approximately the same tumor group average (typical+/−5 mm^3) and treatment initiated. Each group consisted of 10 animals. Conjugate 133a was dosed at 20 mg/kg via intraperitoneal (IP) injection on MWF, for 2 weeks. […] The study also included a vehicle (PBS) only treatment group with the aforementioned schedule. After initiation of treatment tumors were measured 3×/week with tumor volumes calculated based on the following formula: (width×width×length)/2. All tumors were monitored until the maximum allowed volume was reached (=>2,000 mm^3).
# Tumor efficacy models were conducted in female BALB/c mice (Charles River; 18-22 g) injected with the colon tumor cell line CT26 (ATCC; CRL-2638). […] After initiation of treatment tumors were measured 3×/week with tumor volumes calculated based on the following formula: (width×width×length)/2. All tumors were monitored until the maximum allowed volume was reached (=>2,000 mm^3). […]
smiles,measurement,value
C[C@H](Nc1cc(Cl)nc2c1cnn2[C@@H]1O[C@H](COP(=O)(O)CP(=O)(O)O)[C@@H](O)[C@H]1O)c1ccccc1F [AB680],reduction in tumor volume compared to the vehicle group,50.7%
